Measured values as given in paper PMC5608804, “Stepwise Evolution Improves Identification of Diverse Peptides Binding to a Protein Target” (Scientific Reports, 2017).

Molecular target: T1, streptavidin (Streptomyces avidinii, UniProt P22629)
T1 construct: purchased GE Healthcare (Little Chalfont, UK)
Experiment: Cy5-streptavidin binding on HotSpot discovery array, 5-mer L-peptide library
Conditions: for S/B: signal to background ratio
How it was run: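 Array of 2,476,099 5-mer peptides (19 amino acids, no cysteine) with Gly-Ser linkers, probed overnight at 4 °C with 0.5 µg/ml Cy5-streptavidin in Tris pH 7.4 buffer containing casein or BSA plus Tween-20. Cy5 fluorescence read at 635 nm; peptides selected by signal-to-background >4 across three arrays.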

[1] = 5-mer L-peptide library array, Cy5-streptavidin, from average of three arrays
[2] = 5-mer L-peptide library, from the average of three arrays
[3] = average of three arrays, L-peptide 5-mer library
[4] = 5-mer L-peptide library array, Cy5-streptavidin, from the average of three arrays
[5] = 5-mer L-peptide library array, Cy5-streptavidin

T1 sequence (P22629 25-183): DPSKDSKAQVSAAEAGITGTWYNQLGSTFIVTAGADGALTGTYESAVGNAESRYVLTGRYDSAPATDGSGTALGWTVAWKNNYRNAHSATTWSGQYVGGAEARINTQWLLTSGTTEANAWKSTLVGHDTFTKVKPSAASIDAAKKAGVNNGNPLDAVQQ

Substance	S/B (signal to background ratio) [1]	other results
PIHPM	24.8	
PIPDW [L-amino acid 5-mer array peptide]		S/B (signal to background ratio) [2]: 4.1; S/B (signal to background ratio) [3]: 4.1
PKHPM	19.4	
PKHPQ		S/B (signal to background ratio) [4]: 80.7
PLHPM	39.0	
PLPDD [L-amino acid 5-mer array peptide]		S/B (signal to background ratio) [2]: 4.9; S/B (signal to background ratio) [3]: 4.9
PMHPQ	135.3	
PMPDD		S/B [5]: 8.2
PMPDE		S/B [5]: 6.3
PNHPQ	144.0	
PPHPM	53.6	
PPHPQ	150.0	
PQHPQ	136.1	
PQPDW		S/B [5]: 5.2
PRHPQ	161.5	
PSHPQ	136.6	
PSWAH [L-amino acid 5-mer array peptide]		S/B (signal to background ratio) [3]: 7.3; S/B [5]: 7.3
PTHPQ	130.7	
PVHPM	27.2	
PVHPQ		S/B (signal to background ratio) [4]: 99.3
PWHPQ	182.5	
PYHPM	54.5	
PYHPQ	151.0	

Substance	S/B (signal to background ratio) [1]	other results
QDHPQ		S/B (signal to background ratio) [4]: 81.1
QEHPQ		S/B (signal to background ratio) [4]: 63.4
QFHPM		S/B (signal to background ratio) [4]: 77.7
QFHPQ	180.1	
QGHPM	56.0	
QHHPM		S/B (signal to background ratio) [4]: 64.4
QHHPQ	136.3	
QHPMH		S/B [5]: 12.4
QHPMI		S/B [5]: 6.4
QHPMK		S/B (signal to background ratio) [2]: 4.4
QHPMR		S/B [5]: 9.5
QHPMY		S/B [5]: 11.3
QHPQA	138.2	
QHPQF		S/B (signal to background ratio) [4]: 117.5
QHPQG	122.5	
QHPQH	52.4	
QHPQI		S/B [5]: 14.9
QHPQK		S/B [5]: 15.8
QHPQM	40.0	
QHPQN	143.0	
QHPQS		S/B (signal to background ratio) [4]: 87.0
QHPQV		S/B (signal to background ratio) [4]: 84.6
QKHPQ		S/B (signal to background ratio) [4]: 86.0

Substance	S/B (signal to background ratio) [1]	other results
QLHPQ		S/B (signal to background ratio) [4]: 117.5
QMHPQ	124.9	
QNHPM		S/B (signal to background ratio) [4]: 58.4
QNHPQ	135.0	
QPHPM	52.0	
QPHPQ		S/B (signal to background ratio) [4]: 90.3
QQHPM	43.3	
QQHPQ	136.6	
QRHPM	57.2	
QRHPQ	154.5	
QSHPM	42.7	
QSHPQ	135.3	
QTHPQ		S/B (signal to background ratio) [4]: 90.7
QWHPM		S/B (signal to background ratio) [4]: 72.2
QWHPQ	173.7	
QYHPM		S/B (signal to background ratio) [4]: 82.7
QYHPQ	195.0	
RAHPQ	147.2	
RDHPQ	132.4	
RFDLL [L-amino acid 5-mer array peptide]		S/B (signal to background ratio) [3]: 5.2; S/B [5]: 5.2
RFHPM		S/B (signal to background ratio) [4]: 59.2
RFHPQ	161.9	
RGHPM		S/B (signal to background ratio) [4]: 58.1

Substance	S/B (signal to background ratio) [1]	other results
RGHPQ	135.0	
RHDLY [L-amino acid 5-mer array peptide]		S/B (signal to background ratio) [3]: 6.6; S/B [5]: 6.6
RHHPM	53.8	
RHHPQ	148.9	
RHPMA		S/B (signal to background ratio) [4]: 68.6
RHPMD		S/B (signal to background ratio) [2]: 4.3
RHPMI		S/B [5]: 8.0
RHPMM		S/B [5]: 11.6
RHPMQ		S/B [5]: 16.4
RHPMR		S/B (signal to background ratio) [2]: 4.2
RHPMS	30.8	
RHPMT		S/B (signal to background ratio) [2]: 5.1
RHPMW		S/B [5]: 5.9
RHPMY		S/B [5]: 14.4
RHPQA	134.8	
RHPQD	36.1	
RHPQE		S/B [5]: 8.3
RHPQF	125.0	
RHPQG	124.2	
RHPQL		S/B (signal to background ratio) [2]: 4.6
RHPQN		S/B (signal to background ratio) [4]: 86.1
RHPQP		S/B [5]: 7.4
RHPQQ	43.6	

Substance	S/B (signal to background ratio) [1]	other results
RHPQV		S/B (signal to background ratio) [4]: 94.3
RHPQW	20.3	
RHPQY	41.5	
RKHPQ	46.9	
RLHPM	33.8	
RLHPQ	137.3	
RMHPM	37.9	
RMHPQ	119.1	
RNHPM	54.6	
RNHPQ	136.2	
RPHPQ	133.3	
RQHPM	55.1	
RQHPQ	139.3	
RRHPM	31.6	
RRHPQ		S/B (signal to background ratio) [4]: 103.0
RSHPQ	137.5	
RTHPM	49.0	
RTHPQ	125.7	
RVHPQ	126.3	
RWHPM		S/B (signal to background ratio) [4]: 79.7
RYHPQ	175.9	
SDHPM	34.7	
SDHPQ		S/B (signal to background ratio) [4]: 92.6

Substance	S/B (signal to background ratio) [1]	other results
SEHPM	19.1	
SFHPM		S/B (signal to background ratio) [4]: 65.3
SFHPQ	121.6	
SGHPM	54.4	
SGHPQ	128.5	
SHHPQ	155.1	
SHPMA		S/B (signal to background ratio) [4]: 60.4
SHPMS	25.8	
SHPMY		S/B [5]: 11.0
SHPQA	137.0	
SHPQF	132.4	
SHPQG		S/B (signal to background ratio) [4]: 117.3
SHPQL		S/B (signal to background ratio) [2]: 4.4
SHPQM	37.7	
SHPQN	135.7	
SHPQQ	41.4	
SHPQR	26.8	
SHPQV		S/B (signal to background ratio) [4]: 98.7
SHPQY	47.6	
SIHPQ		S/B (signal to background ratio) [4]: 118.3
SKHPQ		S/B (signal to background ratio) [4]: 66.3
SLHPM	46.4	
SLHPQ	133.4	

Substance	S/B (signal to background ratio) [1]	other results
SMHPQ	142.0	
SNHPM	54.1	
SNHPQ	144.9	
SPHPQ	145.4	
SQHPM	50.2	
SRHPM		S/B (signal to background ratio) [4]: 57.8
SRHPQ	154.4	
SSHPM	50.5	
SSHPQ	134.8	
STHPM	48.2	
STHPQ	139.4	
SVHPQ		S/B (signal to background ratio) [4]: 116.5
SWHPQ	171.5	
TAHPQ	120.0	
TEHPQ	57.0	
TFHPM	52.6	
TFHPQ	156.9	
TGHPM	53.4	
TGHPQ	128.8	
THHPM		S/B (signal to background ratio) [4]: 58.0
